This is an account of results in ChEMBL document CHEMBL5052849, “Compositions and methods for measuring and inhibiting calpain-5 activity” (2021).

Non-standard residues stand in square brackets, D forms with d. Residues, ends and D or L forms follow the SMILES beside them. Nle = CCCC[C@H](N)C(=O)O

Set-up in all cases: species or system Homo sapiens
The nature of assay [1]: Inhibition of CAPN5 G267S mutant (unknown origin) using DABCYL-TPLKSPPPSPR-EDANS as substrate incubated for 30 mins and measured by High-throughput FRET-based assay.
Assay [2] can be described thus: Inhibition of CAPN5 R243L mutant (unknown origin).
Assay [3] can be described thus: Inhibition of wild-type CAPN5 (unknown origin).

`CCCC[C@@H](C=O)NC(=O)[C@H](CC(C)C)NC(=O)[C@H](CC(C)C)NC(C)=O` (Ac-Leu-Leu-[Nle]-aldehyde) showed a half-maximal inhibitory concentration (IC50) in assay [1] of 0.136 µM.

Regarding `CC[C@H](C)[C@H](NC(=O)[C@H](CCC(=O)O)NC(=O)[C@@H](NC(=O)[C@@H](N)CCCCN)[C@@H](C)CC)C(=O)N[C@H](C(=O)N[C@@H](CCCNC(=N)N)C(=O)N[C@@H](CCCCNC)C(=O)N[C@@H](CCCCN)C(=O)N1CCC[C@H]1C(=O)N[C@H](C(=O)N[C@@H](Cc1ccccc1)C(=O)N[C@@H](CCCCN)C(=O)N[C@@H](CCCCN)C(=O)N[C@@H](C)C(=O)N[C@H](C(=O)N[C@H](C(=O)O)C(C)C)[C@@H](C)O)[C@@H](C)CC)C(C)C` (HELM PEPTIDE1{K.I.E.I.V.R.[CNCCCC[C@H](N[*:1])C(=O)[*:2]].K.P.I.F.K.K.A.T.V}$$$$V2.0), the IC50 was found to be 0.0295 µM in assay [2] (read-out: IC50), 24 µM in assay [3] and 0.0036 µM in assay [1].

With `CC[C@H](C)[C@H](NC(=O)[C@H](CCC(=O)O)NC(=O)[C@@H](NC(=O)[C@@H](N)CCCCN)[C@@H](C)CC)C(=O)N[C@H](C(=O)N[C@@H](CCCNC(=N)N)C(=O)N[C@@H](CCCCNC)C(=O)N[C@@H](CCCCNC)C(=O)N1CCC[C@H]1C(=O)N[C@H](C(=O)N[C@@H](Cc1ccccc1)C(=O)N[C@@H](CCCCN)C(=O)N[C@@H](CCCCN)C(=O)N[C@@H](C)C(=O)N[C@H](C(=O)N[C@H](C(=O)O)C(C)C)[C@@H](C)O)[C@@H](C)CC)C(C)C` (HELM PEPTIDE1{K.I.E.I.V.R.[CNCCCC[C@H](N[*:1])C(=O)[*:2]].[CNCCCC[C@H](N[*:1])C(=O)[*:2]].P.I.F.K.K.A.T.V}$$$$V2.0), the IC50 amounted to 0.126 µM in assay [2] (read-out: IC50), 0.496 µM in assay [3] and 1.2 µM in assay [1].

Regarding `CCCC[C@@H](C=O)NC(=O)[C@H](CC(C)C)NC(=O)OCc1ccccc1` [CALPEPTIN], the IC50 entry was “Not Active” in assay [2], 0.00835 µM in assay [3] and 1.1 µM in assay [1].

For the compound `CC(=O)N[C@@H](CC(C)C)C(=O)N[C@@H](CC(C)C)C(=O)N[C@H](C=O)CCCNC(=N)N` [LEUPEPTIN], the IC50 result in assay [2] is “Not Active”; in assay [3], 0.165 µM.

One may read the IC50 as the concentration that gives 50% inhibition.
